Assay: not given

melting point [°C] | Structure (SMILES)
90 to 95 | CCC1COC(Cn2cncn2)(c2ccc(Oc3c(F)cccc3F)cc2)O1 (stereo not drawn) [Example 9, 1-{2-[4-(2,6-Difluoro-phenoxy)-phenyl]-4-ethyl-[1,3]dioxolan-2-ylmethyl}-1H-[1,2,4]triazole]
153 to 155 | COCC1COC(Cn2ncnc2S)(c2ccc(Oc3ccc(Cl)cc3)cc2Cl)O1 (stereo not drawn) [Example 66, 2-{2-[2-Chloro-4-(4-chloro-phenoxy)-phenyl]-4-methoxymethyl-[1,3]dioxolan-2-ylmethyl}-2H-[1,2,4]triazole-3-thiol]
108 to 110 | CC1COC(Cn2cncn2)(c2ccc(Oc3ccccc3)c(F)c2)O1 (stereo not drawn) [Example 35, 1-{2-[3-Fluoro-4-phenoxy-phenyl]-4-methyl-[1,3]dioxolan-2-ylmethyl}-1H-[1,2,4]triazole]
102 to 104 | CC1COC(Cn2cncn2)(c2cc(F)c(Oc3ccccc3)cc2F)O1 (stereo not drawn) [Example 40, 1-{2-[3,6-Difluoro-4-phenoxy-phenyl]-4-methyl-[1,3]dioxolan-2-ylmethyl}-1H-[1,2,4]triazole]
112 to 114 | CCC1COC(Cn2cncn2)(c2ccc(Oc3ccc(F)cc3F)cc2)O1 (stereo not drawn) [Example 5, 1-{2-[4-(2,4-Difluoro-phenoxy)-phenyl]-4-ethyl-[1,3]dioxolan-2-ylmethyl}-1H-[1,2,4]triazole]
112 to 114 | CC1COC(Cn2cncn2)(c2ccc(Oc3c(F)cccc3Cl)cc2)O1 (stereo not drawn) [Example 6, 1-{2-[4-(6-Chloro-2-fluoro-phenoxy)-phenyl]-4-methyl-[1,3]dioxolan-2-ylmethyl}-1H-[1,2,4]triazole]
83 to 86 | CC1COC(Cn2cncn2)(c2ccc(Oc3ccc(F)cc3F)cc2)O1 (stereo not drawn) [Example 4, 1-{2-[4-(2,4-Difluoro-phenoxy)-phenyl]-4-methyl-[1,3]dioxolan-2-ylmethyl}-1H-[1,2,4]triazole]
113 to 115 | CC1COC(Cn2cncn2)(c2ccc(Oc3ccc(Cl)cc3F)cc2)O1 (stereo not drawn) [Example 3, 1-{2-[4-(4-Chloro-2-fluoro-phenoxy)-phenyl]-4-methyl-[1,3]dioxolan-2-ylmethyl}-1H-[1,2,4]triazole]
86 to 88 | CC1COC(Cn2cncn2)(c2cc(F)c(Oc3ccc(Cl)cc3)cc2F)O1 (stereo not drawn) [Example 37, 1-{2-[4-(4-Chloro-phenoxy)-2,5-difluoro-phenyl]-4-methyl-[1,3]dioxolan-2-ylmethyl}-1H-[1,2,4]triazole]
119.9 | CC1COC(Cn2cncn2)(c2ccc(Oc3cc(F)ccc3F)cc2Cl)O1 (stereo not drawn) [Example 26, 1-{2-[2-Chloro-4-(2,5-difluoro-phenoxy)-phenyl]-4-methyl-[1,3]dioxolan-2-ylmethyl}-1H-[1,2,4]triazole]
139 to 141 | CC1COC(Cn2ncnc2S)(c2cc(F)c(Oc3ccccc3)c(F)c2)O1 (stereo not drawn) [Example 68, 2-{2-[3,5-Difluoro-4-phenoxy-phenyl]-4-methyl-[1,3]dioxolan-2-yl-methyl}-2H-[1,2,4]triazole-3-thiol]
105 to 106 | CCCC1COC(Cn2ncnc2S)(c2ccc(Oc3ccc(Cl)cc3)cc2Cl)O1 (stereo not drawn) [Example 65, 2-{2-[2-Chloro-4-(4-chloro-phenoxy)-phenyl]-4-propyl-[1,3]dioxolan-2-yl-methyl}-2H-[1,2,4]triazole-3-thiol]
62 to 64 | CC1COC(Cn2ncnc2S)(c2ccc(Oc3ccccc3)c(F)c2)O1 (stereo not drawn) [Example 67, 2-{2-[3-Fluoro-4-phenoxy-phenyl]-4-methyl-[1,3]dioxolan-2-yl-methyl}-2H-[1,2,4]triazole-3-thiol]

Assay: Log P, partition coefficient between water and octanol
Format: physicochemical
From the text: Log P is the partition coefficient between water and octanol.

logP | Structure (SMILES)
3.5 | CC1COC(Cn2ncnc2S)(c2ccc(Oc3ccc(Cl)cc3)cc2F)O1 (stereo not drawn) [Example 70, 2-{2-[4-(4-Chloro-phenoxy)-2-fluoro-phenyl]-4-methyl-[1,3]dioxolan-2-yl-methyl}-2H-[1,2,4]triazole-3-thiol]
4.2 | CC1COC(Cn2cncn2)(c2ccc(Oc3ccc(Cl)cc3)c(F)c2)O1 (stereo not drawn) [Example 32, 1-{2-[4-(4-Chloro-phenoxy)-3-fluoro-phenyl]-4-methyl-[1,3]dioxolan-2-ylmethyl}-1H-[1,2,4]triazole]
3.2 | CC1COC(Cn2ncnc2S)(c2cc(F)c(Oc3ccc(Cl)cc3)cc2F)O1 (stereo not drawn) [Example 63, 2-{2-[4-(4-Chloro-phenoxy)-2,5-difluoro-phenyl]-4-methyl-[1,3]dioxolan-2-ylmethyl}-2H-[1,2,4]triazole-3-thiol]
5.4 | CCCC1COC(Cn2cncn2)(c2ccc(Oc3ccc(Cl)cc3)cc2Cl)O1 (stereo not drawn) [Example 39, 1-{2-[2-Chloro-4-(4-chloro-phenoxy)-phenyl]-4-propyl-[1,3]dioxolan-2-ylmethyl}-1H-[1,2,4]triazole]
3.6 | CC1COC(Cn2ncnc2S)(c2ccc(Oc3ccc(Cl)cc3)c(F)c2)O1 (stereo not drawn) [Example 69, 2-{2-[4-(4-Chloro-phenoxy)-3-fluoro-phenyl]-4-methyl-[1,3]dioxolan-2-yl-methyl}-2H-[1,2,4]triazole-3-thiol]
3.7 | CC1COC(Cn2cncn2)(c2cc(F)c(Oc3ccccc3)c(F)c2)O1 (stereo not drawn) [Example 41, 1-{2-[3,5-Difluoro-4-phenoxy-phenyl]-4-methyl-[1,3]dioxolan-2-ylmethyl}-1H-[1,2,4]triazole]
5 | CCC1COC(Cn2cncn2)(c2ccc(Oc3ccc(Cl)cc3)cc2Cl)O1 (stereo not drawn) [Example 38, 1-{2-[2-Chloro-4-(4-chloro-phenoxy)-phenyl]-4-ethyl-[1,3]dioxolan-2-ylmethyl}-1H-[1,2,4]triazole]
2.9 | CC1COC(Cn2ncnc2S)(c2cc(F)c(Oc3ccccc3)cc2F)O1 (stereo not drawn) [Example 64, 2-{2-[2,5-Difluoro-4-phenoxy-phenyl]-4-methyl-[1,3]dioxolan-2-yl-methyl}-2H-[1,2,4]triazole-3-thiol]

— patent publication US20120088663A1, “Triazole Compounds Carrying a Sulfur Substituent” (BASF SE, priority 2009, published 2012)
